These results are taken from patent publication US20140073631A1 (priority 2012, published 2014).

The subject of series [1] is Yersinia pestis. Nature of the series: microbe, parasite or virus in culture. The series is classed as cell-based. The following applies: Yersinia pestis.
Series [2] concerns Bacillus anthracis. As to the kind of experiment: microbe, parasite or virus in culture. The series is classed as cell-based. The following applies: Bacillus anthracis.
Series [3] has as its system Francisella tularensis. As to the kind of experiment: microbe, parasite or virus in culture. As to conditions: Francisella tularensis. The series is classed as cell-based.
The subject of series [4] is Burkholderia mallei. Nature of the series: microbe, parasite or virus in culture. The series is classed as cell-based. The following applies: Burkholderia mallei.
In series [5] the test system is H37Rv Colorado strain. Nature of the series: TB MIC Testing (Table 9). The series is classed as cell-based. As to conditions: Mycobacterium tuberculosis, read-out: MIC Value, Standard Test Strain H27Rv.
Series [6] relates to H37Rv Colorado strain. As to the kind of experiment: MBC Determination with H37Rv Colorado strain (Table 9). The series is classed as cell-based. As to conditions: Mycobacterium tuberculosis; Performed with H37Rv.
Series [7] relates to TB. As to the kind of experiment: DMID TB MIC Results (Table 10). The following applies: Mycobacterium tuberculosis; solvent DMSO. The series is classed as cell-based.
For series [8], the system named is B. anthracis. As to the kind of experiment: microbe, parasite or virus in culture. The series is classed as cell-based. As to conditions: Bacillus anthracis, read-out: MIC B. anthracis.
The test system of series [9] is B. mallei. Nature of the series: microbe, parasite or virus in culture. The series is classed as cell-based. As to conditions: Burkholderia mallei, read-out: MIC B. mallei.
The test system of series [10] is B. pseudomallei. As to the kind of experiment: microbe, parasite or virus in culture. The series is classed as cell-based. The following applies: Burkholderia pseudomallei, read-out: MIC B. pseudomallei.
The test system of series [11] is F. tularensis. Nature of the series: microbe, parasite or virus in culture. The series is classed as cell-based. As to conditions: Francisella tularensis, read-out: MIC F. tularensis (Original Test).
Series [12] has as its system Y. pestis. As to the kind of experiment: microbe, parasite or virus in culture. The following applies: Yersinia pestis, read-out: MIC Y. pestis. The series is classed as cell-based.
In series [13] the test system is E. coli. As to the kind of experiment: microbe, parasite or virus in culture. The series is classed as cell-based. The following applies: Escherichia coli, read-out: MIC E. coli.
Series [14] relates to P. aeruginosa. As to the kind of experiment: microbe, parasite or virus in culture. The series is classed as cell-based. The following applies: Pseudomonas aeruginosa, read-out: MIC P. aeruginosa.
The subject of series [15] is Plasmodium falciparum. As to the kind of experiment: Anti-malaria testing. The series is classed as cell-based.
Series [16] relates to Vero Cells. Nature of the series: Cytotoxicity Assay, CellTiter-Glo Luminescent Cell Viability Assay.
Series [17] relates to Y. pestis C092. The series is classed as in vivo, BALB/c mice. The following applies: 21 days.
Series [18] relates to F. tularensis SCHU S4. Also on record: species or system BALB/c mice. As to conditions: mouse, in vivo.
Series [19] deals with Mtb H37Rv (SRI 1345). As to the kind of experiment: microbe, parasite or virus in culture. The series is classed as cell-based, Mycobacterium tuberculosis.
Series [20] has as its system Mtb H37Rv (SRI 1345). As to the kind of experiment: microbe, parasite or virus in culture. The series is classed as cell-based, Mycobacterium tuberculosis. This is another data set of the same source.
For series [21], the system named is Mtb H37Rv (SRI 1345), nonreplicating persistence. The series is classed as cell-based, Mycobacterium tuberculosis.
The test system of series [22] is Mtb H37Rv (SRI 1345) in murine J774 cells. The series is classed as cell-based, Mycobacterium tuberculosis.
For series [23], the system named is uninfected J774 macrophages. As to conditions: mouse.

Each structure is given as a SMILES string. ≈ marks a conversion by molar mass, not a printed value. Read-outs that look alike come from different tables or passages of the source.

Broadly, the IC50 is the concentration at which inhibition is half-maximal. By IC90 is commonly meant the point of the concentration-response curve where the effect stands at 90%. High values mean weaker potency, low ones greater potency. In the case of `CC1COc2c(N3CCN(C(=N)NC#N)CC3)c(F)cc3c(=O)c(C(=O)O)cn1c23` (stereo not drawn) [BVS-60C (XVII)], the MIC90 was less than 4 µg/mL in series [1], not above 0.25 µg/mL in [2], less than 4 µg/mL in series [3] and less than 4 µg/mL in [4]. Besides, the MIC in series [5] is 0.312 µg/mL (≈ 0.753 µM); in series [7] it was 0.312 µg/mL (≈ 0.753 µM); in series [8], less than 0.06 µg/mL; in series [9] it was 1 µg/mL (≈ 2.41 µM); in series [10], 1 to 2 µg/mL (≈ 2.41 to 4.83 µM); in series [11] it was less than 0.06 µg/mL. For the same compound, the MIC in series [12] was 0.06 µg/mL (≈ 0.145 µM); in series [13], 0.06 to 0.12 µg/mL (≈ 0.145 to 0.29 µM); in [14], 2 µg/mL (≈ 4.83 µM). In addition, the MBC in series [6] is 0.625 µg/mL (≈ 1.51 µM). Further, the IC50 in [7] worked out at 0.22 µg/mL (≈ 0.531 µM); in series [15] (average of Test 1 and Test 2, read-out: Average IC50), 6.11 µM; in [15] (read-out: IC50 Test 1) it was 6.11 µM. Further, it took 0.23 µg/mL (≈ 0.555 µM) to reach the 90% level in series [7] (IC90). For the same compound, the “% Viability” value in [16] (0.01 μg/ml) is on record as 93%; in [16] (0.02 μg/ml) it was 95%; in [16] (5 μg/ml) it was 92%; in [16] (10 μg/ml), 88%; in series [16] (20 μg/ml, vs […] DMSO controls), 96%.
On to `C[C@H]1COc2c(N3CCN(C)CC3)c(F)cc3c(=O)c(C(=O)O)cn1c23` [Levofloxacin, reference compound], for which the survival is 88.9% in series [17] and 100% in series [18].
By % inhibition is commonly meant the percentage by which the read-out fell short of the control. The low end stands for a weak effect, the high end for a strong effect. Turning to `CO[C@H]1/C=C/O[C@@]2(C)Oc3c(C)c(O)c4c(O)c(c(/C=N/N5CCN(C)CC5)c(O)c4c3C2=O)NC(=O)/C(C)=C\C=C\[C@H](C)[C@H](O)[C@@H](C)[C@@H](O)[C@@H](C)[C@H](OC(C)=O)[C@@H]1C` [Rifampin, rifampin, reference compound], the “% inhibition at the MIC concentration” value in series [19] was found to be 81%. Also, in series [19] (Mycobacterium tuberculosis, H37RV, 168 h, read-out: MIC H37Rv), the MIC was determined as 0.049 µg/mL (≈ 0.0595 µM). Also, in series [20], the “Colony Count” value is on record as 23 CFU. This compound returned an MBC in series [20] (Mycobacterium tuberculosis, H37RV) of 3.12 µg/mL (≈ 3.8 µM). Moreover, the LORA in series [21] was 1.56 µg/mL. In [22], the “Microphage log reduction (high conc.)” value stood at 2.00, the “Microphage log reduction (low conc.)” value worked out at 0.76 and the “Microphage log reduction (mid conc.)” value is 1.11. Moreover, the MIC in series [5] came to 0.0031 µg/mL (≈ 0.00377 µM). The MBC in series [6] came out at 0.0063 µg/mL (≈ 0.00766 µM). This compound had an MIC in [7] of 0.006 µg/mL (≈ 0.00729 µM). In series [23], the “MTT % viability (high conc.)” value amounted to 86%, the “MTT % viability (low conc.)” value was found to be 97% and the “MTT % viability (mid conc.)” value is recorded as 96%.
